Laboratory results as given in US20250296971A1, “GASTRIC INHIBITORY PEPTIDE RECEPTOR LIGANDS” (priority 2021, published 2025).
Like-named read-outs stand apart in the source and are kept apart here. *1 amine or outer side, *2 acyl side, *3 side chain or, on linkers, in order; H or OH if unused. Where a SMILES comes first, the peptide text is derived from it. Bridges are numbered along the chain shown (N, C = ends). [ ]: non-standard residue; d: D form. The star is where a group is joined. X5 = NC(=O)[C@H](CCCCNC(=O)CN1CCN(CC(=O)O)CCN(CC(=O)O)CCN(CC(=O)O)CC1)NC(=O)CCC(=O)NCCCOCCOCCOCCCN*; NH(1-deoxy-D-glucityl) = OC[C@@H](O)[C@@H](O)[C@H](O)[C@@H](O)CN*; DOTA = O=C(O)CN1CCN(CC(=O)O)CCN(CC(=O)*)CCN(CC(=O)O)CC1; Trp(5-Br) = N[C@@H](Cc1c[nH]c2ccc(Br)cc12)C(=O)O; Trp(5-Cl) = N[C@@H](Cc1c[nH]c2ccc(Cl)cc12)C(=O)O; Pyridine(2,6-diCH2) = c1cc(C[*:1])nc(C[*:2])c1; Nip(3R) = O=C([C@@H]1CCCN([*:1])C1)[*:2]; Oic = O=C(O)[C@@H]1C[C@@H]2CCCC[C@@H]2N1; Phe(2-Cl) = N[C@@H](Cc1ccccc1Cl)C(=O)O; Pro(4R-NH2) = N[C@H]1CN[C@H](C(=O)O)C1; 1Nal = N[C@@H](Cc1cccc2ccccc12)C(=O)O; mXylylene = c1cc(C[*:1])cc(C[*:2])c1; Glutaryl = O=C(CCCC(=O)[*:2])[*:1]; X7 = c1cc(CSCCN[*:2])cc(C[*:1])c1; Hyp = O=C(O)[C@@H]1C[C@@H](O)CN1; X1 = O=C(CN1CCC(N[*:1])CC1)[*:2]; Suc = O=C(CCC(=O)[*:2])[*:1]; hLeu = CC(C)CC[C@H](N)C(=O)O; Dab = NCC[C@H](N)C(=O)O; Thp = NC1(C(=O)O)CCOCC1; Aib = CC(C)(N)C(=O)O

Molecular target: T1, GIPR (CHO-K1-hGIPR cells) (Homo sapiens, UniProt P48546)
T1 construct: host or cells: CHO-K1
T1 sequence (P48546 22-466): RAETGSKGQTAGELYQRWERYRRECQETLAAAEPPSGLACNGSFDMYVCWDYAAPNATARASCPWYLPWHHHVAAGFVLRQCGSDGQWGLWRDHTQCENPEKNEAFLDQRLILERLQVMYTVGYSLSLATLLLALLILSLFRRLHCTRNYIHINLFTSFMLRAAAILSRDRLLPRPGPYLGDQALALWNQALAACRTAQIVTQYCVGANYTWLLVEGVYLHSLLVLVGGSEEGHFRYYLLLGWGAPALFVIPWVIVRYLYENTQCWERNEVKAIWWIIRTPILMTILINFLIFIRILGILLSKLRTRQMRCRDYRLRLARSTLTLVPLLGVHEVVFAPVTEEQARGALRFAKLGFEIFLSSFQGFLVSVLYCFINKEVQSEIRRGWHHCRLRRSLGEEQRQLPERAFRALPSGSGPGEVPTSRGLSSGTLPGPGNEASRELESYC
Assay: FACS binding assay
Conditions: read-out: pIC50 Category (converted)
In short: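 Median fluorescence in the APC channel, measured on washed CHO-K1 cells overexpressing human GIPR, was fitted by four-parameter logistic regression against peptide concentration to yield EC50 or IC50 values. Secondary labelling used APC-streptavidin (1 μg/mL, 30 min, ice).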

[1] = competition with 20 nM GIP-057, 4° C., 1 hour
[2] = competition with 20 nM GIP-057, 4° C. for 1 hour

IC50 [1]	IC50 [2]	SMILES
< 10 nM		CC[C@H](C)[C@@H]1NC(=O)[C@H](CC(C)C)NC(=O)[C@H](CCNC(=O)CN2CCN(CC(=O)O)CCN(CC(=O)O)CCN(CC(=O)O)CC2)NC(=O)[C@@H](NC(=O)[C@@H](CC(C)C)NC(=O)[C@H](CCC(=O)O)NC(=O)[C@@H]2C[C@@H](N)CN2C(=O)[C@H](Cc2c[nH]c3ccc(Cl)cc23)NC(=O)[C@H](Cc2c[nH]c3ccccc23)NC(=O)[C@H](CC(=O)O)NC(=O)CCCC(=O)NC[C@H](O)[C@@H](O)[C@H](O)[C@H](O)CO)CSCc2cccc(n2)CSC[C@@H](C(=O)NC2CCN(CC(=O)N[C@H](CCC(=O)NC[C@H](O)[C@@H](O)[C@H](O)[C@H](O)CO)C(N)=O)CC2)NC1=O [GIP-026, AGLU-Glutar-Asp-Trp-5Clw-Tap-Glu-leu-[Cys(2Lut)-Dab(DOTA)-Leu-Ile-Cys]-APAc-glu(AGLU)-NH2] ({NH(1-deoxy-D-glucityl)-Glutaryl}-DW[Trp(5-Cl)][Pro(4R-NH2)]E[dL]C[Dab](DOTA)LIC[X1][dE](NH(1-deoxy-D-glucityl))-NH2; linker 7-11 via Pyridine(2,6-diCH2))
	10 to 79.4 nM	CC[C@H](C)[C@@H]1NC(=O)[C@H](CC(C)C)NC(=O)[C@@H](C)NC(=O)[C@@H](NC(=O)[C@H](CC(C)C)NC(=O)[C@H](CCC(=O)O)NC(=O)[C@@H]2CCCN2C(=O)[C@H](Cc2c[nH]c3ccccc23)NC(=O)[C@H](Cc2c[nH]c3ccccc23)NC(=O)[C@H](CC(=O)O)NC(C)=O)CSCc2cccc(c2)CSCCNC1=O [GIP-250, Ac-Asp-Trp-Trp-Pro-Glu-Leu-[Cys(3MeBn)-ala-Leu-Ile-AET]] (Ac-DWWPELC[dA]LI; linker 7-C via X7)
< 10 nM		CC(=O)N[C@@H](CC(=O)O)C(=O)N[C@@H](Cc1c[nH]c2ccccc12)C(=O)N[C@@H](Cc1c[nH]c2ccc(Cl)cc12)C(=O)N1C[C@H](O)C[C@H]1C(=O)N[C@@H](CCC(=O)O)C(=O)N[C@H](CC(C)C)C(=O)N[C@H]1CSCc2cccc(n2)CSC[C@@H](C(N)=O)NC(=O)[C@H](CC(C)C)NC(=O)[C@H](CC(C)C)NC(=O)C2(CCOCC2)NC1=O [GIP-237, Ac-Asp-Trp-5Clw-Hyp-Glu-leu-[Cys(2Lut)-Thp-Leu-Leu-Cys]-NH2] (Ac-DW[Trp(5-Cl)][Hyp]E[dL]C[Thp]LLC-NH2; linker 7-11 via Pyridine(2,6-diCH2))
	10 to 79.4 nM	CC[C@H](C)[C@@H]1NC(=O)[C@H](CC(C)C)NC(=O)C(C)(C)NC(=O)[C@@H](NC(=O)[C@H](CC(C)C)NC(=O)[C@H](CCC(=O)O)NC(=O)[C@@H]2C[C@@H]3CCCC[C@@H]3N2C(=O)[C@H](Cc2cccc3ccccc23)NC(=O)[C@H](Cc2c[nH]c3ccccc23)NC(=O)[C@H](CC(=O)O)NC(C)=O)CSCc2cccc(c2)CSC[C@@H](C(N)=O)NC1=O [GIP-252, Ac-Asp-Trp-1Ni-Pip-Glu-Leu-[Cys(3MeBn)-Aib-Leu-Ile-Cys]-NH2] (Ac-DW[1Nal][Oic]ELC[Aib]LIC-NH2; linker 7-11 via mXylylene)
	> 1000 nM	CC[C@H](C)[C@@H]1NC(=O)[C@H](CC(C)C)NC(=O)C(C)(C)NC(=O)[C@@H](NC(=O)[C@H](CC(C)C)NC(=O)[C@H](CCC(=O)O)NC(=O)[C@@H]2CCCN(C(=O)[C@H](Cc3cccc4ccccc34)NC(=O)[C@H](Cc3c[nH]c4ccccc34)NC(=O)[C@H](CC(=O)O)NC(C)=O)C2)CSCc2cccc(c2)CSC[C@@H](C(N)=O)NC1=O [GIP-342, Ac-Asp-Trp-1Ni-Rni-Glu-Leu-[Cys(3MeBn)-Aib-Leu-Ile-Cys]-NH2] (Ac-DW[1Nal][Nip(3R)]ELC[Aib]LIC-NH2; linker 7-11 via mXylylene)
< 10 nM		CC[C@H](C)[C@@H]1NC(=O)[C@H](CCC(=O)O)NC(=O)C2(CCOCC2)NC(=O)[C@@H](NC(=O)[C@@H](CC(C)C)NC(=O)[C@H](CCC(=O)O)NC(=O)[C@@H]2C[C@@H](O)CN2C(=O)[C@H](Cc2c[nH]c3ccc(Cl)cc23)NC(=O)[C@H](Cc2c[nH]c3ccccc23)NC(=O)[C@H](CC(=O)O)NC(C)=O)CSCc2cccc(n2)CSC[C@@H](C(N)=O)NC1=O [GIP-231, Ac-Asp-Trp-5Clw-Hyp-Glu-leu-[Cys(2Lut)-Thp-Glu-Ile-Cys]-NH2] (Ac-DW[Trp(5-Cl)][Hyp]E[dL]C[Thp]EIC-NH2; linker 7-11 via Pyridine(2,6-diCH2))
< 10 nM		CC[C@H](C)[C@@H]1NC(=O)[C@H](CC(C)C)NC(=O)C(C)(C)NC(=O)[C@@H](NC(=O)[C@@H](CC(C)C)NC(=O)[C@H](CCC(=O)O)NC(=O)[C@@H]2CCCN2C(=O)[C@H](Cc2c[nH]c3ccc(Br)cc23)NC(=O)[C@H](Cc2c[nH]c3ccccc23)NC(=O)[C@H](CC(=O)O)NC(C)=O)CSCc2cccc(c2)CSC[C@@H](C(=O)NCCCOCCOCCOCCCNC(=O)CCC(=O)N[C@@H](CCCCNC(=O)CN2CCN(CC(=O)O)CCN(CC(=O)O)CCN(CC(=O)O)CC2)C(N)=O)NC1=O [GIP-082, Ac-Asp-Trp-5Brw-Pro-Glu-leu-[Cys(3MeBn)-Aib-Leu-Ile-Cys]-Ttds-Lys(DOTA)-NH2] (Ac-DW[Trp(5-Br)]PE[dL]C[Aib]LIC-X5; linker 7-11 via mXylylene)
	100 to 794 nM	CC[C@H](C)[C@@H]1NC(=O)[C@H](CC(C)C)NC(=O)C2(CCOCC2)NC(=O)[C@@H](NC(=O)[C@@H](CC(C)C)NC(=O)[C@H](CCC(=O)O)NC(=O)[C@@H]2C[C@@H](O)CN2C(=O)[C@H](Cc2c[nH]c3ccc(Cl)cc23)NC(=O)[C@H](Cc2ccccc2Cl)NC(=O)[C@H](CC(=O)O)NC(C)=O)CSCc2cccc(n2)CSC[C@@H](C(=O)N[C@H](CCCCNC(=O)CN2CCN(CC(=O)O)CCN(CC(=O)O)CCN(CC(=O)O)CC2)C(N)=O)NC1=O [GIP-399, Ac-Asp-Ocf-5Clw-Hyp-Glu-leu-[Cys(2Lut)-Thp-Leu-Ile-Cys]-lys(DOT A)-NH2] (Ac-D[Phe(2-Cl)][Trp(5-Cl)][Hyp]E[dL]C[Thp]LIC[dK](DOTA)-NH2; linker 7-11 via Pyridine(2,6-diCH2))
	> 1000 nM	CC[C@H](C)[C@@H]1NC(=O)[C@H](CC(C)C)NC(=O)C(C)(C)NC(=O)[C@@H](NC(=O)[C@H](CC(C)C)NC(=O)[C@H](CCC(=O)O)NC(=O)[C@@H]2CCCN2C(=O)[C@H](Cc2cccc3ccccc23)NC(=O)[C@H](Cc2c[nH]c3ccccc23)NC(C)=O)CSCc2cccc(c2)CSC[C@@H](C(=O)NCCCOCCOCCOCCCNC(=O)CCC(=O)N[C@@H](CCCCNC(=O)CN2CCN(CC(=O)O)CCN(CC(=O)O)CCN(CC(=O)O)CC2)C(N)=O)NC1=O [GIP-301, Ac-Trp-1Ni-Pro-Glu-Leu-[Cys(3MeBn)-Aib-Leu-Ile-Cys]-Ttds-Lys(DOTA)-NH2] (Ac-W[1Nal]PELC[Aib]LIC-X5; linker 6-10 via mXylylene)
	10 to 79.4 nM	CC[C@H](C)[C@@H]1NC(=O)[C@H](CCC(C)C)NC(=O)C(C)(C)NC(=O)[C@@H](NC(=O)[C@H](CC(C)C)NC(=O)[C@H](CCC(=O)O)NC(=O)[C@@H]2CCCN2C(=O)[C@H](Cc2c[nH]c3ccccc23)NC(=O)[C@H](Cc2c[nH]c3ccccc23)NC(=O)CCC(=O)O)CSCc2cccc(c2)CSC[C@@H](C(N)=O)NC1=O [GIP-260, HO-Succinyl-Trp-Trp-Pro-Glu-Leu-[Cys(3MeBn)-Aib-Hle-Ile-Cys]-NH2] (Suc-WWPELC[Aib][hLeu]IC-NH2; linker 6-10 via mXylylene)
